Experiment [1] concerns Staphylococcus aureus. Put plainly: Antibacterial activity against […] Staphylococcus aureus ATCC 43300 assessed as growth inhibition after 10 hrs by spectrophotometry. In kind it is functional, organism-based. The note with it: ATCC 43300, 10 h.
Experiment [2] in a line: Inhibition of Escherichia coli recombinant MetAP expressed in Escherichia coli BL21(DE3) assessed as production of fluorescent aminomethylcoumarin using Met-AMC as substrate by fluorescence assay in presence of […].
Experiment [3] concerns Staphylococcus aureus. Put plainly: Antibacterial activity against methicillin-resistant Staphylococcus aureus ATCC BAA1680 assessed as growth inhibition after 10 hrs by spectrophotometry. In kind it is functional, organism-based. The note with it: ATCC BAA1680, 10 h.
Experiment [4] deals with Escherichia coli. Briefly: Antibacterial activity against Escherichia coli AS19 assessed as growth inhibition after 10 hrs by spectrophotometry. The format is functional, organism-based. The note with it: AS19, 10 h.
For experiment [5], the system named is Escherichia coli. Put plainly: Inhibition of MetAP in Escherichia coli AS19 harboring pBACE plasmid assessed as cellular accumulation of unprocessed GST after 50 hrs by mass spectrometry.

IC50, MIC90 and inhibition data for seven molecules are collected here from ChEMBL document CHEMBL1806415, “Growth inhibition of Escherichia coli and methicillin-resistant Staphylococcus aureus by targeting cellular methionine aminopeptidase” (Eur J Med Chem, 2011).

A word on the IC50: it is the concentration that inhibits the measured activity by half. In general, MIC90 refers to the lowest concentration that inhibits either 90% of growth or 90% of the strains tested, depending on the study.

Values after ≈ are worked out from the molar mass of the structure shown. Active and inactive are the calls of the source. The rule behind the calls is not given here.

Take `CCCCc1ccsc1-c1ccc(O)c(O)c1`: the IC50 in experiment [1] was found to be 8.2 µM; in experiment [2] it was 37.3 µM; in experiment [3], 12.4 µM. Moreover, the MIC90 in experiment [1] amounted to 5 µg/mL (≈ 20.1 µM); in experiment [3] it was 4 µg/mL (≈ 16.1 µM); in experiment [4], 5 µg/mL (≈ 20.1 µM).
Turning to `CCCc1ccsc1-c1ccc(O)c(O)c1`, the results for the IC50 in experiment [1], in experiment [2] and in experiment [3] were 13.9 µM, 49.5 µM and 33.4 µM, respectively. The MIC90 turned out to be 16 µg/mL (≈ 68.3 µM) in experiment [1], 11 µg/mL (≈ 46.9 µM) in experiment [3] and 4 µg/mL (≈ 17.1 µM) in experiment [4].
For the molecule `Oc1ccc(-c2cc(Cl)sc2Cl)cc1O`, the IC50 in experiment [1] is 11.3 µM; in experiment [2], 51.9 µM; in experiment [3] it was 4.6 µM. Further, the results for the MIC90 in experiment [1], in experiment [3] and in experiment [4] were 4 µg/mL (≈ 15.3 µM), 2 µg/mL (≈ 7.66 µM) and 3 µg/mL (≈ 11.5 µM), respectively. Also, the inhibition entry in experiment [5] was “Active”.
Take `Oc1ccc(-c2sccc2Cl)cc1O`: the IC50 in experiment [1] was determined as 25.8 µM; in experiment [2] it was 15.4 µM; in experiment [3] it was 63.8 µM; in experiment [4] it was 23.3 µM. Besides, the MIC90 amounted to 12 µg/mL (≈ 52.9 µM) in experiment [1], 25 µg/mL (≈ 110 µM) in experiment [3] and 5 µg/mL (≈ 22.1 µM) in experiment [4]. Also, the inhibition result in experiment [5] is “Active”.
Regarding `Oc1ccc(-c2sc(Cl)c(Cl)c2Cl)cc1O`, the IC50 worked out at 2.8 µM in experiment [1], 22.1 µM in experiment [2], 1 µM in experiment [3] and 2.3 µM in experiment [4]. Besides, the MIC90 amounted to 1 µg/mL (≈ 3.38 µM) in experiment [1] and 0.7 µg/mL (≈ 2.37 µM) in experiment [3].
In the case of `Cc1sc(C)c(-c2ccc(O)c(O)c2)c1Br`, the IC50 in experiment [1] came to 12.2 µM; in experiment [2], 63.6 µM; in experiment [3], 23.2 µM. Also, the MIC90 is 18 µg/mL (≈ 60.2 µM) in experiment [1], 13 µg/mL (≈ 43.5 µM) in experiment [3] and 5 µg/mL (≈ 16.7 µM) in experiment [4].
As to `Oc1ccc(-c2ccsc2)cc1O`, the IC50 was found to be 11.7 µM in experiment [1], 38.4 µM in experiment [2] and 41.7 µM in experiment [3]. Moreover, the MIC90 in experiment [1] is 11 µg/mL (≈ 57.2 µM); in experiment [3], 13 µg/mL (≈ 67.6 µM); in experiment [4], 15 µg/mL (≈ 78 µM).
